Patent publication US20160060352A1, “COMPOSITIONS AND METHODS FOR DETECTION AND TREATMENT OF HEPA[…]” (VIVENTIA BIO INC., priority 2013, published 2016)
≈ marks a conversion by molar mass, not a printed value.

Columns and labels:
[1] = tested on: HuH-7; assay: MTS cell growth assay, HuH-7; assay type: cell-based; settings: Homo sapiens, 48 h incubation
Description: (§3) Human HCC cell lines Hep3B, PLC/PRF/5, and SK-Hep1 were obtained from the American Type Culture Collection (Manassas, Va., USA). Other human HCC cell lines HuH-7, HuH-1, HepG2, HLE, and HLF were obtained from the Human Science Research Resources Bank (Osaka, Japan). HuH-7, HepG2, Hep3B, and SK-Hep1 cells were cultured in log growth phase in 1640 RPMI (Invitrogen, Carlsbad, Calif.) and HuH-1, HLE, HLF, and PLC/PRF/5, cells were cultured in Dulbecco's modified Eagle medium (Invitrogen) with 5% fetal bovine serum (Sigma, St. Louis, Mo.) for HLF cells or 10% FBS for the remaining cell lines. All media were supplemented with 1% PenStrep (Sigma). […] All cell lines were cultivated in a humidified incubator at 37° C. in 5% carbon dioxide and harvested with 0.05% trypsin-0.03% EDTA (Invitrogen).
(§4) HCC cell lines were seeded in 96-well plates at 3×10^3 cells per well in a total volume of 50 μl of culture media. […] Cell viability was monitored using CellTiter 96 AQueous One Solution Cell Proliferation Assay Kit (Promega) and half-maximal inhibitory concentration (IC50) values were calculated. The mean values and standard deviations of IC50 were calculated in triplicate for each cell line. […] Each analysis was performed in triplicate, and the data expressed as means±standard deviations.

[2] = tested on: HepG2; assay: MTS cell growth assay, HepG2; assay type: cell-based; settings: Homo sapiens, 48 h incubation
Description: as §3, §4

[3] = tested on: Hep3B; assay: MTS cell growth assay, Hep3B; assay type: cell-based; settings: Homo sapiens, 48 h incubation
Description: as §3, §4

[4] = tested on: HuH-1; assay: MTS cell growth assay, HuH-1; assay type: cell-based; settings: Homo sapiens, 48 h incubation
Description: as §3, §4

[5] = tested on: HLE; assay: MTS cell growth assay, HLE; assay type: cell-based; settings: Homo sapiens, 48 h incubation
Description: (§1) Human HCC cell lines Hep3B, PLC/PRF/5, and SK-Hep1 were obtained from the American Type Culture Collection (Manassas, Va., USA). Other human HCC cell lines HuH-7, HuH-1, HepG2, HLE, and HLF were obtained from the Human Science Research Resources Bank (Osaka, Japan). HuH-7, HepG2, Hep3B, and SK-Hep1 cells were cultured in log growth phase in 1640 RPMI (Invitrogen, Carlsbad, Calif.) and HuH-1, HLE, HLF, and PLC/PRF/5, cells were cultured in Dulbecco's modified Eagle medium (Invitrogen) with 5% fetal bovine serum (Sigma, St. Louis, Mo.) for HLF cells or 10% FBS for the remaining cell lines. All media were supplemented with 1% PenStrep (Sigma). […]
(§2) HCC cell lines were seeded in 96-well plates at 3×10^3 cells per well in a total volume of 50 μl of culture media. […] Cell viability was monitored using CellTiter 96 AQueous One Solution Cell Proliferation Assay Kit (Promega) and half-maximal inhibitory concentration (IC50) values were calculated. The mean values and standard deviations of IC50 were calculated in triplicate for each cell line. […] The remaining viable cells were counted using a Cytorecon (GE Healthcare) after staining with trypan blue to exclude the dead cells. Each analysis was performed in triplicate, and the data expressed as means±standard deviations.

[6] = tested on: HLF; assay: MTS cell growth assay, HLF; assay type: cell-based; settings: Homo sapiens, 48 h incubation
Description: as §1, §2

[7] = tested on: PLC/PRF/5; assay: MTS cell growth assay, PLC/PRF/5; assay type: cell-based; settings: Homo sapiens, 48 h incubation
Description: as §1, §2

[8] = tested on: SK-Hep1 cells; assay: MTS cell growth assay, SK-Hep1; assay type: cell-based; settings: Homo sapiens, 48 h incubation
Description: as §1, §2

[9] = tested on: Ep-CAM^low cell lines; assay: Cell proliferation assay (viable cell count, trypan blue), Ep-CAM^low cell lines; assay type: cell-based, human; settings: VB4-845 10 pM and 5-FU 1-5 μg/ml, 48 h; p>0.05
Description: (A) Expression of Ep-CAM was analyzed by flow cytometry in 8 HCC cell lines. […] Cell growth was measured in MTS assays. […] Columns, alive cells (%); vertical bars, standard deviation.
as §2, with “line. To investigate cell viability, HCC cell lines were seeded in 6-well plates at 1×10^5 cells per well in a total volume of 2 ml of culture media.” for “line.”

[10] = tested on: Ep-CAM^high cell lines (HuH-7, HepG2, Hep3B and HuH-1); assay: Sphere formation assay; assay type: cell-based, human; settings: 48 h treatment (VB4-845 1-10 pM, 5-FU 1-5 μg/ml), 7 days of culture
Description: Briefly, 1×10^6 cells of HuH-7, HepG2, Hep3B and HuH-1 were seeded in four 10 cm dishes. […] After 48h, the medium was changed to drug-free medium and incubated for 24 h. After cell viability was confirmed by trypan blue exclusion, the remaining viable cells were collected and plated separately at 1×10^2 cells in low attachment plates (96-well Ultra Low Cluster Plate; Costar, Corning, N.Y.), and incubated in serum-free Dulbecco's modified Eagle medium/F12 medium (Invitrogen). Sphere formation was observed using AxioObserver (Carl Zeiss, Oberkochen, Germany), and the images were acquired digitally using AxioVision software (Carl Zeiss).

[11] = tested on: CD133; assay: FACS analysis of stem/progenitor marker CD133 after treatment; assay type: cell-based, human; settings: HuH-7, HepG2, and Hep3B cells, compared with the control
Description: (§5) For flow cytometry, FACSCanto™ II (BD Biosciences, San Jose, Calif.) was used. Cancer cells were washed with phosphate-buffered saline, and then enzymatically dissociated with 0.05% trypsin-EDTA (Invitrogen). The trypsinized cells were suspended in FACS buffer, and analyzed on FACSCanto™ II using FACSDiva software (BD Biosciences). For the analysis of hepatic stem/progenitor markers, primary antibodies against Ep-CAM (#324206; Biolegend, San Diego, Calif.), CD13 (#555394; BD Pharmingen), CD44 (#555479; BD Pharmingen), CD90 (#328110; BioLegend), CD133 (#130-080-801; Miltenyi Biotec, Gladbach, Germany), Mouse IgG1 κtype (#555749; BioLegend), and Mouse IgG2b κtype (#400314; BioLegend) were used. All antibodies were conjugated directly with phycoerythrin (PE). The immunostaining and analysis were performed according to the instructions from the manufacturer.

[12] = tested on: CD13; assay: FACS analysis of stem/progenitor marker CD13 after treatment; assay type: cell-based, human; settings: HuH-7 and Hep3B cells
Description: as §5

[13] = tested on: HuH-7 subcutaneous xenografts; assay: Subcutaneous xenograft model; assay type: in vivo, NOD.CB17-PRkdcScid/J mice; settings: three weeks after initiation; VB4-845 30 μg/kg i.v., 5-FU 30 mg/kg i.p., three times a week for 2 weeks
Description: Twenty five-week-old female NOD.CB17-PRkdcScid/J mice purchased from Charles River Laboratory Inc. (Kanagawa, Japan) were injected with 1×10^6 HuH-7 cells mixed with the same amount of Matrigel (BD Biosciences) subcutaneously into the both flanks of mice under anesthesia. […] Tumor size was measured using calipers three times a week and tumor volumes calculated using the following equation: volume=(length)×(width)2×0.5. The mice were sacrificed three weeks after the initiation of treatment.

## O=c1[nH]cc(F)c(=O)[nH]1 [5-FU, 5-fluorouracil]
[1]
  IC50: 0.8 ± 0.1 µg/mL (≈ 6.15 µM)
[2]
  IC50: 39.5 ± 9.6 µg/mL (≈ 304 µM)
[3]
  IC50: 5.9 ± 1.8 µg/mL (≈ 45.4 µM)
[4]
  IC50: 11.3 ± 6.3 µg/mL (≈ 86.9 µM)
[5]
  IC50: 16.5 ± 6.6 µg/mL (≈ 127 µM)
[6]
  IC50: 33.5 ± 17.2 µg/mL (≈ 258 µM)
[7]
  IC50: 55.6 ± 11.2 µg/mL (≈ 427 µM)
[8]
  IC50: 4.3 ± 0.5 µg/mL (≈ 33.1 µM)
[9]
  cell proliferation (alive cells): suppressed cell proliferation to the same extent as the combination of VB4-845 and 5-FU
[10]
  sphere formation by surviving cells: formed spheres
[11]
  positive rate of CD133: significantly increased
[12]
  positive rate of CD13: significantly increased
[13]
  volume of tumors: 555±147 mm^3
